Results published in PubChem BioAssay (NCI).
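Exposure lasted 48 hours, with cells grown in 96-well plates and compounds tested at five concentrations. At the GI50, growth is halved. TGI denotes the concentration required for complete inhibition of growth.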

What was measured:
Test in all cases: NCI anticancer screen, dose series, 48 h
786-0 renal = test system: 786-0 renal
CCRF-CEM leukemia = test system: CCRF-CEM leukemia
EKVX NSCLC = test system: EKVX NSCLC
MCF7 breast = test system: MCF7 breast
MDA-MB-231 breast = test system: MDA-MB-231 breast
NCI-H23 lung = test system: NCI-H23 lung
RXF 393 renal = test system: RXF 393 renal
SF-295 CNS = test system: SF-295 CNS
SK-MEL-2 melanoma = test system: SK-MEL-2 melanoma
TK-10 renal = test system: TK-10 renal

Structure (SMILES)	GI50 (786-0 renal)	TGI (786-0 renal)	GI50 (CCRF-CEM leukemia)	TGI (CCRF-CEM leukemia)	GI50 (EKVX NSCLC)	TGI (EKVX NSCLC)	GI50 (MCF7 breast)	TGI (MCF7 breast)	GI50 (MDA-MB-231 breast)	TGI (MDA-MB-231 breast)	GI50 (NCI-H23 lung)	TGI (NCI-H23 lung)	GI50 (RXF 393 renal)	TGI (RXF 393 renal)	GI50 (SF-295 CNS)	TGI (SF-295 CNS)	GI50 (SK-MEL-2 melanoma)	TGI (SK-MEL-2 melanoma)	GI50 (TK-10 renal)	TGI (TK-10 renal)
COc1ccc([C@H]2c3cc(OC)c(OC)cc3C=C(C=O)C2CO)cc1OC (stereo not given in full)	7.15 µM	> 100 µM	19 µM	> 100 µM	5.29 µM	> 100 µM	3.73 µM	> 100 µM	6.74 µM	> 100 µM	7.15 µM	> 100 µM	3.27 µM	> 100 µM	1.79 µM	5.85 µM	–	–	–	–
CCCCc1ccc2nc(NC(=O)OC)[nH]c2c1	0.0613 µM	29.3 µM	0.0342 µM	–	0.855 µM	> 100 µM	0.0343 µM	> 52.1 µM	0.291 µM	> 74.7 µM	0.142 µM	> 100 µM	0.0929 µM	20.1 µM	0.0299 µM	0.475 µM	0.789 µM	> 62.1 µM	0.325 µM	29.9 µM
O=C(CCCCCCc1nc2ccc(Br)cc2[nH]1)NO	1.03 µM	10.7 µM	0.405 µM	> 100 µM	1.55 µM	97.1 µM	0.425 µM	> 100 µM	0.824 µM	25 µM	0.507 µM	4.89 µM	0.24 µM	0.813 µM	0.471 µM	2.84 µM	0.279 µM	3.87 µM	0.596 µM	5.7 µM
N/C(=N\N=C\c1ccc2c(c1)OCO2)NO	–	37.7 µM	–	51.1 µM	–	> 100 µM	–	> 100 µM	–	> 100 µM	–	98.8 µM	–	> 100 µM	–	> 100 µM	–	61.1 µM	–	> 100 µM
COc1cc(-c2cc(-c3ccc(N(C)C)cc3)nc(N3CCC(O)CC3)c2C#N)cc(OC)c1OC	0.399 µM	> 100 µM	0.598 µM	> 100 µM	0.461 µM	> 100 µM	0.626 µM	3.42 µM	0.392 µM	3.55 µM	1.35 µM	6.74 µM	0.177 µM	3.27 µM	0.212 µM	0.518 µM	0.37 µM	1.07 µM	1.81 µM	15.7 µM
CCOC(=O)c1cc2c(n1Cc1cccc(OC)c1)-c1oncc1CC2	4.29 µM	> 100 µM	1.43 µM	> 100 µM	9.1 µM	> 100 µM	0.487 µM	> 100 µM	4.87 µM	> 100 µM	3.42 µM	> 100 µM	1.72 µM	35.9 µM	0.433 µM	49.7 µM	1.11 µM	> 100 µM	7.51 µM	> 100 µM
Cc1ccc(CCC(=O)Nc2ncc(Cc3cc(Cl)ccc3Cl)s2)o1	0.692 µM	4.19 µM	0.197 µM	> 100 µM	0.466 µM	> 100 µM	0.0439 µM	> 100 µM	0.388 µM	3.35 µM	0.471 µM	> 37.7 µM	0.256 µM	1.75 µM	0.176 µM	2.15 µM	0.683 µM	> 58.5 µM	2.81 µM	> 66.5 µM
COc1cc[c]([Hg][Cl])cc1	3.76 µM	10.8 µM	1.06 µM	5.4 µM	9.51 µM	22.8 µM	1.01 µM	4.53 µM	2.19 µM	4.92 µM	3.03 µM	22.4 µM	1.76 µM	3.14 µM	15.5 µM	29.7 µM	4.39 µM	17.4 µM	17.5 µM	31.4 µM
COc1c2occc2c(OC)c2c(=O)c(S(=O)(=O)NC(=O)Nc3ccc(Cl)cc3)coc12	–	> 10 µM	–	> 10 µM	–	> 10 µM	–	> 10 µM	–	> 10 µM	–	> 10 µM	–	> 10 µM	–	> 10 µM	–	> 10 µM	–	> 10 µM
CCN1CCC(C(=O)Nc2n[nH]c3nnc(-c4cccc(F)c4F)cc23)CC1	6.32 µM	> 25 µM	6.75 µM	> 25 µM	16.9 µM	> 25 µM	2.2 µM	> 12.8 µM	5.51 µM	20.3 µM	16.5 µM	> 25 µM	0.403 µM	5.78 µM	5.73 µM	> 25 µM	4.84 µM	14.2 µM	11.3 µM	> 25 µM
COc1ccc(/C=C2/SC(=Nc3c(C)nn(-c4ccccc4)c3N)NC2=O)cc1	6.94 µM	89.4 µM	2.14 µM	20.8 µM	4.18 µM	40 µM	3.08 µM	31.5 µM	9.5 µM	69.7 µM	5.69 µM	59.5 µM	14.5 µM	47.8 µM	2.76 µM	13.2 µM	3.99 µM	17.2 µM	7.12 µM	57.3 µM
